# Test results taken from patent publication US7714026B2, “Pharmaceutical composition containing bakuchiol for treating woman osteoporosis” (Sinphar Pharmaceutical Co., Ltd., priority 2004, dated 2010).
# “Also recorded” adds a separate entry of the source.
# Test system: ovariectomized female Wistar rats (osteoporosis caused by estrogen deficiency)
# Assay: Ovariectomized female rat model of osteoporosis caused by estrogen deficiency
# Assay type: in vivo
# Details: two months; for bone volume of proximal tibia vs OVX group: FIG. 1; for apparent bone density of tibia vs OVX group: FIG. 2; for erosion surface (ES/BS) of proximal tibia (bone resorption) vs OVX group: FIG. 3
# Description: The purpose of this example is to show the potency of bakuchiol in treating osteoporosis, wherein ovary of a female rat is removed to stimulate osteoporosis caused by estrogen deficiency.
# The female Wistar rats of 16 weeks old (unless specified in the other experiment description) were obtained from the stock reared by the Animal breeding center, National Scientific Council in Taipei. These rats were grouped by weights matched in order to distribute the physiological response variation from rats evenly into each group. These rats were grouping as follows: • Baseline group fed with no drug added food (n=8) • Sham operation group fed with no drug added food (Sham) (n=10) • Ovariectomy operation group fed with no drug added food (OVX) (n=8) • Ovariectomy operation group fed with Drug A (5 mg/kg) added food (OVX+A) (n=9) • Ovariectomy operation group fed with Drug B (15 mg/kg) added food (OVX+B) (n=9)
# Ovariectomy (removal of ovaries) operation: Ovariectomy was induced using a protocol similar to that described by Wronski et al (Wronski et al, Endocrinology, 123 (2), 681-686 ([…]))
# During the experiments, the rats were housed in hanging grid cages in groups of two at 21° C. with a 12 hours dark cycle. Food (Rat-mouse diet III, adequate in 1% of calcium content and 1.2% of phosphate content, Purina, USA) was administered by paired feeding between the experimental and control groups. Pair-feeding was carried out by calculating the average amount of food intake in the Sham group. So give the same amount of food to the OVX, OVX+A (5 mg/kg), OVX+B (15 mg/kg) group animals the following day. These animals were fed with a period of two months except for the baseline group which were killed on the very day of doing ovariectomy or sham operation. Rats of OVX+A and OVX+B groups were fed with the usual food chuck but added certain amount of compound A and B in it respectively. Water was given ad libitum to all rats.
# The test drug was weighted according to dose of 5 mg/kg and 15 mg/kg, and added into the usual food chuck powder and mixed with 10% starch paste. After fully mixed, these chuck powder were made into mass manually and dried by air flow oven. The food with added drug to rats was performed by single blind method.
# These labeling and bone histomorphometry assessment were done based on standard procedure in bone research (Lin et al, Calcif. Tissue Int., 67, 373-377 (2000)). Specimen were prestained with Villanueva bone stain, then […] embedded in London resin. Undecalcified sections of 7 μm thick were cut using Jung-K microtome (Leica Ltd, USA) and treated with Villanueva stain for observation under light microscopy. Seven μm thick unstained sections were prepared for fluorescent microscopy and assessed with program Osteomeasure (3.0 version, Atlanta, USA). The bone volume (FIG. 1) and eroded surface parameters (FIG. 3) were obtained according to Lin et al. (Lin et al, Calcif. Tissue Int., 67, 373-377 (2000)). The experiment was performed under specific project licences from the Animal Center and IAACU, National Defense Medical Center, National Defense University, Taipei, Taiwan.
# The whole tibia and femur were stripped off attached muscles and ligaments after sacrifice. An apparent bone density measurement was done based on Archimedes floating principle on an electronic balance set with densitometry frame (Danielsen et al., Calcif. Tissue Int., 52, 26-33 (1993)). The weight of bone measured in the air was marked as W-air. The weight of the same bone weighed in water will be marked as W-water. The apparent bone density was calculated as [W-air/(W-air minus W-water)](gm/cm^3) (FIG. 2, Bone apparent density of Tibia).
smiles,measurement,setting,value
"C=C[C@@](C)(/C=C/c1ccc(O)cc1)CCC=C(C)C [Bakuchiol, bakuchiol]",bone volume of proximal tibia vs OVX group,"OVX+A, 5 mg/kg in food",increase in the bone volume
same,apparent bone density of tibia vs OVX group,"OVX+A, 5 mg/kg in food",increase
same,erosion surface (ES/BS) of proximal tibia (bone resorption) vs OVX group,"OVX+A, 5 mg/kg in food, 5 mg/kg",inhibiting the bone resorption; also recorded: inhibition of bone erosion (bone resorption)
same,bone volume of proximal tibia vs OVX group,"OVX+B, 15 mg/kg in food",increase in the bone volume
same,apparent bone density of tibia vs OVX group,"OVX+B, 15 mg/kg in food",increase
same,erosion surface (ES/BS) of proximal tibia (bone resorption) vs OVX group,"OVX+B, 15 mg/kg in food",inhibition of bone erosion (bone resorption)
